Usually IC50 stands for the concentration that gives 50% inhibition. High values mean weaker potency, low ones greater potency.

In ChEMBL document CHEMBL1821609, “Combined SVM-based and docking-based virtual screening for retrieving novel inhibitors of c-Met” (Eur J Med Chem, 2011) one finds IC50 data, which are given here for 31 compounds.

Hepatocyte growth factor receptor, sequence (P08581 whole entry): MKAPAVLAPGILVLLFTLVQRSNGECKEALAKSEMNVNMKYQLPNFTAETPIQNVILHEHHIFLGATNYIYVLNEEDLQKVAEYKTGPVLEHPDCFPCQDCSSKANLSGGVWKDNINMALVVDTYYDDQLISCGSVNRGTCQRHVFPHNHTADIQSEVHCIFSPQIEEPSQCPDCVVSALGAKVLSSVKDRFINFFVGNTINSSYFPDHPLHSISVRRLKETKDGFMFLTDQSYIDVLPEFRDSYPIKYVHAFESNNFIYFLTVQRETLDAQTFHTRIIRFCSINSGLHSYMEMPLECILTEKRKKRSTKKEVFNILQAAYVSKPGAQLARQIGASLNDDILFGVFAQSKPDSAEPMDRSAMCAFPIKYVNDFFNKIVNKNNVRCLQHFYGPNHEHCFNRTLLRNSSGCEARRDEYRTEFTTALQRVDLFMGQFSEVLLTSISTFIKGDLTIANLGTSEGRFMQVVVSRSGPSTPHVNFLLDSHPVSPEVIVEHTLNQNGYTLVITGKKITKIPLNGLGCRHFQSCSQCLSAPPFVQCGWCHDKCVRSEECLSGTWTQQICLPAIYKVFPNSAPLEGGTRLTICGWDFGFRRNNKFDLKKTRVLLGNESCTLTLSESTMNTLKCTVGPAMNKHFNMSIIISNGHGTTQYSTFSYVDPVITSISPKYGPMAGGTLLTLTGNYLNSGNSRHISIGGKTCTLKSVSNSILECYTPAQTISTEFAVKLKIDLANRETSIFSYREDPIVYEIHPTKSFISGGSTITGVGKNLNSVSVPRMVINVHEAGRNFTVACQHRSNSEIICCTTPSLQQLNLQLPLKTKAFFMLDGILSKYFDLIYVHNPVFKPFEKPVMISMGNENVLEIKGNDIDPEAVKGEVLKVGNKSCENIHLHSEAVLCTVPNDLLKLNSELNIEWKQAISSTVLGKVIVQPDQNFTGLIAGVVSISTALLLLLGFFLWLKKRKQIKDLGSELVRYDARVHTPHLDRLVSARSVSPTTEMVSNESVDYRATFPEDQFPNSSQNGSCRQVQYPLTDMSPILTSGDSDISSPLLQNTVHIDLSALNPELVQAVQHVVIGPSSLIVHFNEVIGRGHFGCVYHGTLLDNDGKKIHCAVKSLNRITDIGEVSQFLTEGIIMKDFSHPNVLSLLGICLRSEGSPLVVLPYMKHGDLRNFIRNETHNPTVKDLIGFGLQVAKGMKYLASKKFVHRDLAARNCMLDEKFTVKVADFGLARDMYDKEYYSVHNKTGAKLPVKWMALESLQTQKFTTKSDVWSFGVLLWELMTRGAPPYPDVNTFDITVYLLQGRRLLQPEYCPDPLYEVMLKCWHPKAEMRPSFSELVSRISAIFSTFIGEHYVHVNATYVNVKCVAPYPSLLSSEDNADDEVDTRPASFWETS

This test has as its target Hepatocyte growth factor receptor (Homo sapiens, UniProt P08581).
Description: Inhibition of human c-MET
The compound `CN(C)CCNC(=O)c1cc(Br)c2c(c1)NC(=O)/C2=N\NC(=O)Cc1ccc2c(c1)CCO2` displayed an IC50 of 100 nM.

For `CN1CCN(c2cnc3cccc(OCc4cccc([N+](=O)[O-])c4)c3c2)CC1`, 57 nM corresponded to half-maximal inhibition (IC50).

Regarding `COc1cc2nccc(Oc3ccc(NC(=O)NCC(=O)N(C)C)nc3)c2cc1OC`, half-maximal inhibition (IC50) was put at 9640 nM.

For the compound `COc1cc2c(Oc3ccc(-c4cnc(Cc5ccccc5)n(C)c4=O)cc3F)ccnc2cc1OCCCN1CCN(C)CC1`, 9.2 nM corresponded to half-maximal inhibition (IC50).

`O=C(Nc1ccc(Oc2ccnc3ccsc23)cc1)NC1CC1c1ccccc1` (stereo unspecified) returned an IC50 of 10000 nM.

Regarding `Cc1[nH]c(/C=C2\C(=O)Nc3ccc(S(=O)(=O)N4CCc5ccccc54)cc32)c(C)c1C(=O)N1CCN(C)CC1`, the midpoint of inhibition, the IC50, lay at 40 nM. Compared with the last compound, the IC50 is about 250-fold lower.

Take `Cc1[nH]c(/C=C2\C(=O)Nc3ccc(S(=O)(=O)N(C)c4cccc(Cl)c4)cc32)c(C)c1CCCN1CCOCC1`: the IC50 turned out to be 170 nM.

Compound `CCn1ccnc1-c1cc2cccc(Oc3ccc(NC(=S)NC(=O)Cc4ccccc4)cc3F)c2s1` gave an IC50 of 108 nM.

`COc1cc2c(Oc3ccc(-c4cnc(Cc5ccccc5)n(C)c4=O)cc3F)ccnc2cc1OCCCN1CCOCC1` showed an IC50 of 17 nM.

The compound `COc1cc2nccc(Oc3ccc(-c4cnc(C(N)c5ccccc5)n(C)c4=O)cc3F)c2cc1OC` (stereo unspecified) gave an IC50 of 72 nM. This IC50 is about 4.2-fold higher than that of the compound before.

In turn, `Cn1cc(CC(=O)N/N=C2\C(=O)Nc3ccc(C(=O)N4CCCC4CN4CCCC4)c(Cl)c32)ccc1=O` (stereo unspecified) gave an IC50 of 4150 nM.

In turn, `CN(CCN1CCN(N)CC1)Cc1ccc(-c2cc3nccc(Oc4ccc(NC(=O)N5CCN(c6ccccc6)C5=O)cc4F)c3s2)cc1` yielded an IC50 of 28 nM.

In turn, `CCN1CCN(CCCOc2cc3nccc(Oc4ccc(-c5cnc(Cc6ccccc6)n(C)c5=O)cc4F)c3cc2OC)CC1` registered a half-inhibitory concentration (IC50) of 21 nM.

`COc1cc2ncnc(Oc3ccc(NC(=O)NC(=O)c4c(F)cccc4F)nc3)c2cc1OC` showed an IC50 of 430 nM.

Turning to `Cc1cc(CCN2CCCC2)c(C)c2c1N(CCN1CCCCC1)C(=O)/C2=N\NC(=O)C(C)c1ccc(O)cc1` (stereo unspecified), the IC50 was determined as 200 nM.

For `O=C(Nc1ccc(Oc2ccnc3ccsc23)c(F)c1)NC1CC1c1ccccc1` (stereo unspecified), half-maximal inhibition (IC50) required 6600 nM. This IC50 lies about 33-fold higher than the previous one.

The compound `COc1cc2c(Oc3ccc(-c4cnc(Cc5ccc(F)cc5)n(C)c4=O)cc3F)ccnc2cc1OCCCN1CCOCC1` yielded an IC50 of 17 nM.

Compound `Cc1cccc2c1NC(=O)/C2=N\NC(=O)Cc1ccc(O)c(Cl)c1` yielded a concentration for half-maximal inhibition (IC50) of 20 nM.

`Cn1ccnc1-c1cc2nccc(Oc3ccc(NC(=O)NC(=O)c4c(F)cccc4F)nc3)c2s1` returned an IC50 of 4400 nM.

In turn, `COc1cc2c(Oc3ccc(-c4cnc(Nc5ccc(F)cc5)n(C)c4=O)cc3F)ccnc2cc1OCCCN1CCOCC1` came in with an IC50 of 4.9 nM.

In turn, `CC(C(=O)NN=C1C(=O)Nc2ccc(C(=O)N3CCCC3CN3CCCC3)c(Cl)c21)c1ccc(F)cc1` (stereo unspecified) gave a half-maximal inhibitory concentration (IC50) of 430 nM. This IC50 is about 88-fold higher than that of the compound before.

As for `COc1cc2nccc(Oc3ccc(NC(=O)NCCc4c(Cl)cccc4Cl)nc3)c2cc1OC`, the concentration for half-maximal inhibition (IC50) came out at 5200 nM.

`COc1cc2nccc(Oc3ccc(-c4cnc(Nc5cccc(F)c5)n(C)c4=O)cc3F)c2cc1OC` showed an IC50 of 38 nM.

In turn, `O=C(Cc1ccccc1)NC(=O)Nc1ccc(Oc2ccnc3ccsc23)cc1F` gave an IC50 of 300 nM.

For `O=C(Cc1ccc2c(c1)CCO2)NN=C1C(=O)Nc2cc(C(=O)NCN3CCOCC3)cc(Br)c21`, the IC50 is 0.7 nM.

Compound `O=C(Cc1ccccc1)NC(=S)Nc1ccc(Oc2ccnc3cc(C(=O)C4CCCO4)sc23)c(F)c1` (stereo unspecified) yielded a concentration for half-maximal inhibition (IC50) of 130 nM.

The compound `CC(C)(C)OC(=O)c1cnc2ccn(S(=O)(=O)c3ccccc3[N+](=O)[O-])c2c1` came in with an IC50 of 20 nM.

On to `O=C(Cc1ccccc1)NC(=S)Nc1ccc(Oc2cccc3cc(-c4ncccn4)sc23)c(F)c1`, for which the IC50 was found to be 181 nM.

`COc1ccc2c(Oc3ccc(NC(=O)c4c(C)n(CC(C)(C)O)n(-c5ccccc5)c4=O)cc3F)ccnc2c1` returned a 50% inhibitory concentration (IC50) of 2.7 nM.

Take `O=C(Cc1ccc2c(c1)CCO2)N/N=C1\C(=O)Nc2cc(C(=O)NCCCO)cc(Br)c21`: it took 65 nM to reach half-maximal inhibition (IC50).

Regarding `Cn1cnc(-c2cc3cccc(Oc4ccc(NC(=S)NC(=O)Cc5ccccc5)cc4F)c3s2)c1`, the IC50 was determined as 29 nM. Against the preceding compound, the IC50 is about 2.2-fold lower.
